Reference: patent publication US6706663B2, “Herbicidal 3-heterocyclic substituted benzisothiazole and benzisoxazole compounds” (Wyeth, priority 2000, dated 2004)

Key:
[1] = test system: IPOHE (Ipomoea hederacea); test: Postemergence herbicidal evaluation; assay type: in vivo, (L.) Jacq.; conditions: postemergence
Outline: (§1)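 Visual 0–9 injury scores versus control plants, covering stand, vigour, malformation, size, chlorosis and general appearance, taken four to five weeks post-spray and averaged over replicate tests. Plants were sprayed at roughly two weeks old and held on greenhouse benches.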

[2] = test system: GALAP (Galium aparine); test: Preemergence herbicidal evaluation; assay type: in vivo; conditions: rated 4-5 weeks after treatment
Outline: (§2)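 Visual 0-9 rating versus untreated control, taken four to five weeks post-treatment, scoring stand, vigor, malformation, size, chlorosis and overall appearance. Compound applied as aqueous acetone spray to freshly seeded soil cups, then kept under standard greenhouse care.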

[3] = test system: MOOVA (Monochoria vaginalis); test: Flooded paddy, preemergence weed control; assay type: in vivo, Presl.; conditions: rated 3-4 weeks after treatment, 0-9 rating scale
Outline: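 Ratings of 0-9 reflect visual comparison with a control for stand, vigor, deformity, size, chlorosis and overall look. Propagules were placed in shallow silt loam (top 0.5 cm) under a continuous 1.5–3 cm flood and grown in the greenhouse.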

[4] = test system: ZEAMX (Corn, Field); test: Preemergence herbicidal evaluation; assay type: in vivo, Zea mays, L.; conditions: rated 4-5 weeks after treatment
[5] = test system: ORYSAT (Rice, Tebonnet); test: Flooded paddy, post-transplant rice tolerance; assay type: in vivo, Oryza sativa, (L.) Tebonnet; conditions: flooded paddy, post-transplant rice, rated 3-4 weeks after treatment, 0-9 rating scale
Outline: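 Visual 0–9 injury rating against a control, covering stand, vigor, malformation, size, chlorosis and overall appearance. Treatment was post-transplant onto flooded containers (water 1.5–3 cm deep, silt loam) holding two ten-day-old cv. Tebonnet seedlings, maintained on greenhouse benches.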

[6] = test system: ABUTH (Abutilon theophrasti); test: Postemergence herbicidal evaluation; assay type: in vivo, Medic.; conditions: postemergence
Outline: as §1

[7] = test system: SETVI (Setaria viridis); test: Postemergence herbicidal evaluation; assay type: in vivo, (L.) Beau; conditions: postemergence
Outline: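 Seedlings grown about two weeks were sprayed with compound in 50/50 acetone/water containing 0.5% TWEEN 20, at about 0.0040 to 1.000 kg/ha via nozzle at 40 psi. Plants were kept under greenhouse conditions and visually rated on a 0-9 scale versus control four to five weeks after treatment; replicate tests averaged.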

[8] = test system: SETVI (Setaria viridis); test: Preemergence herbicidal evaluation; assay type: in vivo, (L.) Beau; conditions: rated 4-5 weeks after treatment
Outline: as §2

[9] = test system: ECHCG (Echinochloa crus-galli); test: Preemergence herbicidal evaluation; assay type: in vivo, (L.) Beau; conditions: rated 4-5 weeks after treatment
Outline: as §2

[10] = test system: TRZAWR (Wheat, Winter, cv Riband); test: Postemergence herbicidal evaluation; assay type: in vivo, Triticum aestivum; conditions: postemergence
Outline: as §1

[11] = test system: GLXMAW (Soybean, Williams); test: Postemergence herbicidal evaluation; assay type: in vivo, Glycine max, (L.) Merr. cv Williams; conditions: postemergence
Outline: as §1

[12] = test system: ABUTH (Abutilon theophrasti); test: Preemergence herbicidal evaluation; assay type: in vivo, Medic.; conditions: rated 4-5 weeks after treatment
[13] = test system: AMBEL (Ambrosia artemisifolia); test: Preemergence herbicidal evaluation; assay type: in vivo, L.; conditions: rated 4-5 weeks after treatment
Outline: as §2

[14] = test system: CASOB (Cassia obtusifolia); test: Preemergence herbicidal evaluation; assay type: in vivo, L.; conditions: rated 4-5 weeks after treatment
Outline: as §2

[15] = test system: CHEAL (Chenopodium album); test: Preemergence herbicidal evaluation; assay type: in vivo, L.; conditions: rated 4-5 weeks after treatment
Outline: as §2

[16] = test system: GALAP (Galium aparine); test: Postemergence herbicidal evaluation; assay type: in vivo; conditions: postemergence
Outline: as §1

Cn1c(C(F)(F)F)cc(=O)n(-c2ccc3snc(C4=NCCO4)c3c2)c1=O [Compound 75, 1-methyl-3-[3(2-oxazolin-2-yl)-1,2-benzisothiazol-5-yl]-6-(trifluoromethyl)uracil]
IPOHE herbicidal rating ([1]; rate 0.0320 kg/ha): 9.0
IPOHE herbicidal rating ([1]; rate 0.0620 kg/ha): 9.0
Preemergence herbicidal rating GALAP ([2]; Rate 0.0620 kg/ha): 5.0
Preemergence herbicidal rating GALAP ([2]; Rate 0.1250 kg/ha): 7.0
Preemergence herbicidal rating GALAP ([2]; Rate 0.2500 kg/ha): 9.0
herbicidal rating, MOOVA ([3]; rate 0.0080 kg/ha): 0.0
herbicidal rating, MOOVA ([3]; rate 0.0320 kg/ha): 7.0
herbicidal rating, MOOVA ([3]; rate 0.1250 kg/ha): 9.0
Preemergence herbicidal rating ZEAMX ([4]; Rate 0.0620 kg/ha): 1.0
Preemergence herbicidal rating ZEAMX ([4]; Rate 0.1250 kg/ha): 2.0
Preemergence herbicidal rating ZEAMX ([4]; Rate 0.2500 kg/ha): 3.0
herbicidal rating, ORYSAT (rice tolerance) ([5]; rate 0.0080 kg/ha): 2.5
herbicidal rating, ORYSAT (rice tolerance) ([5]; rate 0.0320 kg/ha): 4.5
herbicidal rating, ORYSAT (rice tolerance) ([5]; rate 0.1250 kg/ha): 6.0
ABUTH herbicidal rating ([6]; rate 0.0320 kg/ha): 9.0
ABUTH herbicidal rating ([6]; rate 0.0620 kg/ha): 9.0
SETVI herbicidal rating ([7]; rate 0.0320 kg/ha): 2.0
SETVI herbicidal rating ([7]; rate 0.0620 kg/ha): 4.0
Preemergence herbicidal rating SETVI ([8]; Rate 0.0620 kg/ha): 0.0
Preemergence herbicidal rating SETVI ([8]; Rate 0.1250 kg/ha): 1.0
Preemergence herbicidal rating SETVI ([8]; Rate 0.2500 kg/ha): 6.0
Preemergence herbicidal rating ECHCG ([9]; Rate 0.0620 kg/ha): 0.0
Preemergence herbicidal rating ECHCG ([9]; Rate 0.1250 kg/ha): 1.0
Preemergence herbicidal rating ECHCG ([9]; Rate 0.2500 kg/ha): 6.0
TRZAWR herbicidal rating ([10]; rate 0.0320 kg/ha): 2.0
TRZAWR herbicidal rating ([10]; rate 0.0620 kg/ha): 3.5
GLXMAW herbicidal rating ([11]; rate 0.0320 kg/ha): 5.5
GLXMAW herbicidal rating ([11]; rate 0.0620 kg/ha): 7.0
Preemergence herbicidal rating ABUTH ([12]; Rate 0.0620 kg/ha): 1.0
Preemergence herbicidal rating ABUTH ([12]; Rate 0.1250 kg/ha): 1.0
Preemergence herbicidal rating ABUTH ([12]; Rate 0.2500 kg/ha): 9.0
Preemergence herbicidal rating AMBEL ([13]; Rate 0.0620 kg/ha): 1.0
Preemergence herbicidal rating AMBEL ([13]; Rate 0.1250 kg/ha): 3.0
Preemergence herbicidal rating AMBEL ([13]; Rate 0.2500 kg/ha): 7.0
Preemergence herbicidal rating CASOB ([14]; Rate 0.0620 kg/ha): 0.0
Preemergence herbicidal rating CASOB ([14]; Rate 0.1250 kg/ha): 1.0
Preemergence herbicidal rating CASOB ([14]; Rate 0.2500 kg/ha): 1.0
Preemergence herbicidal rating CHEAL ([15]; Rate 0.0620 kg/ha): 9.0
Preemergence herbicidal rating CHEAL ([15]; Rate 0.1250 kg/ha): 6.0
Preemergence herbicidal rating CHEAL ([15]; Rate 0.2500 kg/ha): 9.0
GALAP herbicidal rating ([16]; rate 0.0320 kg/ha): 5.0
GALAP herbicidal rating ([16]; rate 0.0620 kg/ha): 7.0
